Reference: PubChem BioAssay AID1159561 (GlaxoSmithKline (GSK), 2015)
pIC50: −log10 of the molar value. Active and inactive are the calls of the source.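 How the source made its calls: active means toxic to mouse fibroblast host cells, with IC50 below 50 µM; inactive means the rest.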

Tested on: NIH-3T3 viability, ATP luminescence
Assay: murine fibroblast viability via ATP level – cell-based, murine fibroblasts, cytotoxicity control for Trypanosoma cruzi inhibitor project (AID 1159561)
Details: 4 days

Structure (SMILES)	pIC50	IC50
Cc1cc(N(C)C)nc2ccc(Cc3cnc(N)nc3N)cc12	5.00	–
CNc1cncc(C2CCCN2C(=O)Cc2ccc3ccccc3c2)n1 (configuration not stated)	–	> 50 µM (inactive)
CCN(CC)S(=O)(=O)c1ccc(C(=O)Nc2cc(C)nn2-c2nc(C)c(C)c(=O)[nH]2)cc1	–	> 50 µM (inactive)
CN(Cc1ccc(C(N)=O)cc1)C(c1ccc(F)cc1)c1cccnc1 (configuration not stated)	4.49	–
N#Cc1cccc(CN2CCC(N(Cc3cccnc3)C(=O)c3cc(F)c(F)cc3F)CC2)c1	4.70	–
Clc1cc(Br)ccc1OCCCCn1ccnc1	4.80	–
CCn1nccc1CN(C)C(=O)C=Cc1ccc(Cl)cc1	–	> 50 µM (inactive)
COc1ccc(NS(=O)(=O)c2cc(-c3cc(C)[nH]n3)ccc2C)cc1OC	–	> 50 µM (inactive)
c1cc(-c2ncc(-c3ccn[nH]3)s2)ccn1	–	> 50 µM (inactive)
O=C(NCCc1ccccn1)C(c1cn[nH]c1)N1CCN(c2ccc(Cl)c(Cl)c2)CC1 (configuration not stated)	4.49	–
CC(CNS(=O)(=O)c1ccc(OC(F)F)cc1)c1ccc(NC(=O)c2ccncc2)cc1 (configuration not stated)	–	> 50 µM (inactive)
COc1ccc(CN(C)Cc2ccncc2)cc1-c1ccc(S(=O)(=O)NC2CCC2)s1	4.60	–
NC(=O)c1ccc(-c2cccc(OCCN3CCN(C4CCCCC4)CC3)c2)cc1	4.80	–
O=C1CCCCCC1(Cc1cnc[nH]1)c1ccc(Cl)cc1Cl (configuration not stated)	4.70	–
CS(=O)(=O)c1cccc(-c2cnc(N)c3c(-c4ccc(CO)cc4)csc23)c1	4.60	–
O=c1[nH]ccc2ccc(-c3ccncc3)cc12	–	> 50 µM (inactive)
Cc1c([N+](=O)[O-])c(C(=O)Nc2sc3c(c2C#N)CCC(C)C3)nn1C (configuration not stated)	4.89	–
CCN(Cc1ccncc1)Cc1ccc(NC(=O)c2cc(-c3ccc(F)cc3)n[nH]2)cc1	5.00	–
CC(=O)Nc1nc(-c2cc(C)ccc2C)c(C)s1	4.60	–
O=S(=O)(NCC(c1cccnc1)N1CCN(c2ccc(F)cc2)CC1)c1cccs1 (configuration not stated)	–	> 50 µM (inactive)
c1cncc(CN(Cc2ccco2)Cc2cn[nH]c2-c2cccs2)c1	4.49	–
Cc1ccc(NC(=O)c2ccc(Cl)c(NC(=O)c3ccc([N+](=O)[O-])cc3)c2)cc1	4.70	–
Cc1c(C(C)NC(=O)Nc2cccc(Cl)c2)sc2ncnn12 (configuration not stated)	–	> 50 µM (inactive)
COc1ccc2nccc([C@H](O)CN3CC[C@H](NC(=O)c4ccc(Br)cc4)[C@@H](O)C3)c2n1	–	> 50 µM (inactive)

Structure (SMILES)	pIC50	IC50
O=C(NCCc1ccccc1Cl)c1cccn1-c1cccnc1	4.49	–
O=[N+]([O-])c1ccc(C2=CC(c3ccccc3)=NCCN2)cc1	5.10	–
O=C(COc1ncnc2cc([N+](=O)[O-])ccc12)NC(=O)NC1CCCCC1	–	> 50 µM (inactive)
CS(=O)(=O)c1cccc(CNC(=O)c2cncc(N3CCN(c4ccc(F)cc4)CC3)c2)c1	4.60	–
CS(=O)(=O)c1ccc(CC(=O)Nc2nc(-c3ccc(Cl)s3)cs2)cc1	–	> 50 µM (inactive)
O=C(CCCn1cnc([N+](=O)[O-])n1)Nc1cccc(Cl)c1	–	> 50 µM (inactive)
COc1ccc(CN2CCCCC2c2nc(-c3cccnc3)no2)cc1 (configuration not stated)	–	> 50 µM (inactive)
COc1ccc(NS(=O)(=O)c2cc(NC(=O)c3ccc([N+](=O)[O-])s3)ccc2OC)cc1	–	> 50 µM (inactive)
Cc1nc2nc(C)c(Cc3ccc(C(C)C)cc3)c(=O)n2[nH]1	–	> 50 µM (inactive)
COc1cc(NC(=O)Nc2cccc(CNC(=O)OC3CCCCC3)c2)ccc1-c1cnco1	5.00	–
COc1ccc(-c2nc3ncccc3o2)cc1NC(=O)c1cccs1	–	> 50 µM (inactive)
CC(=O)Nc1ccc(-c2noc(CC3CCCN(Cc4cccc(F)c4C)C3)n2)cc1 (configuration not stated)	4.60	–
CCCCn1nnnc1CSc1nc(C)cc(C)c1C#N	–	> 50 µM (inactive)
Cc1nn(C)c(Cl)c1CN(Cc1cccnc1)Cc1ccsc1	4.70	–
COc1ccc(C(C)N(C)c2ncc3c(N)nc(N)nc3n2)cc1F (configuration not stated)	4.40	–
COc1ccccc1C=CCN1C[C@H]2CCC[C@@H](C1)C2(O)c1cccnc1 (some centres not stated)	4.49	–
CN(C)c1ccc(-c2cc3nccnc3c(OC[C@H]3CCCNC3)n2)cn1	4.80	–
Cc1cccc(NS(=O)(=O)c2ccc3c(c2)C(=O)c2cc(S(=O)(=O)Nc4cccc(C)c4C)ccc2-3)c1C	–	> 50 µM (inactive)
Cc1cc(C#N)c([N+](=O)[O-])cc1Br	4.70	–
CCCC(=O)N(Cc1ccccn1)c1nc2ccccc2s1	–	> 50 µM (inactive)
Cc1cc2cncn2c(C2CCCCN2C(=O)c2cccs2)n1 (configuration not stated)	–	> 50 µM (inactive)
CC(C)Oc1cccc(N2CCC(C(=O)N3CCCN(C(C)C)CC3)CC2)c1	4.49	–
CN1CCN(c2nc(-c3ccc(Cl)cc3)c3c(N)n(C)nc3n2)CC1	4.60	–
O=C(Cn1cnc([N+](=O)[O-])n1)Nc1ccc(Cl)cc1C(=O)c1ccccc1	–	> 50 µM (inactive)

Structure (SMILES)	pIC50	IC50
O=C(CN(c1cccc(C(F)(F)F)c1)S(=O)(=O)c1ccc(Cl)cc1)NCc1ccc(F)c(F)c1	4.49	–
O=C(NCCNc1noc(-c2ccc([N+](=O)[O-])cc2)n1)c1ccc(Cl)cc1	–	> 50 µM (inactive)
O=C(Nc1nc(-c2ccc(S(=O)(=O)N3CCOCC3)cc2)cs1)c1ccc([N+](=O)[O-])cc1	4.60	–
CCCn1c(NC(=O)Cc2ccc(Cl)cc2)nc2ccccc21	–	> 50 µM (inactive)
O=C(NCC(c1cccnc1)N1CCc2ccccc2C1)C(=O)Nc1cccc(Cl)c1 (configuration not stated)	4.60	–
CC1=C(C(=O)Nc2ccc(Cl)cc2)C(c2ccncc2)n2ncc(C(=O)Nc3ccccc3)c2N1 (configuration not stated)	4.49	–
NC(=O)c1ccccc1Nc1nc(NC2CCCCC2)nc2[nH]ccc12	4.60	–
O=c1cc(NCCCNC2CCOc3c(I)cc(Cl)cc32)[nH]c2ccccc12 (configuration not stated)	4.60	–
O=C(Nc1cccc(F)c1)N1CCC(Oc2cccc(-c3cccnc3)c2)CC1	4.40	–
COc1ccc(NS(=O)(=O)c2cc(NC(=O)Cc3ccc(C)cc3)ccc2N2CCOCC2)cc1	4.60	–
COc1ccc([N+](=O)[O-])cc1NC(=O)Nc1cccc(Cl)c1	–	> 50 µM (inactive)
Cc1ccc2c(c1)-c1onc(C(=O)N3CCCCC3c3cccnc3)c1CO2 (configuration not stated)	4.70	–
COc1ccc(S(=O)(=O)Nc2ccccc2OC)cc1NC(=O)CCCc1c[nH]c2ccccc12	–	> 50 µM (inactive)
Cc1ccc(C)c(OC2CCN(C(=O)C(C)n3ccnc3)CC2)c1 (configuration not stated)	–	> 50 µM (inactive)
CC(C)(C)C(O)(CCc1ccc(Cl)cc1)Cn1cncn1 (configuration not stated)	–	> 50 µM (inactive)
O=C(CSc1ccc(F)cc1)N[C@@H](Cc1cnc[nH]1)C(=O)NCCc1ccccc1	4.89	–
N#Cc1nc(C=Cc2ccccc2)oc1NCc1cccnc1	4.89	–
c1ccc2c(CCOc3nccnc3-c3ccncc3)c[nH]c2c1	4.70	–
O=c1[nH]c(C=Cc2cccc(OCCOc3ccccc3)c2)nc(O)c1[N+](=O)[O-]	–	> 50 µM (inactive)
CN(Cc1cccnc1)Cc1ccc(N2CCN(C(=O)C3(c4ccc(Cl)cc4)CC3)CC2)nc1	5.10	–
Clc1ccc(CN2CCN(C3=NCCN3)CC2)cc1Cl	4.40	–
CC(Cn1ccnc1)NC(=O)COc1ccc(Cl)c(Cl)c1 (configuration not stated)	–	> 50 µM (inactive)
Clc1ccc(OCCN2CCCCC2c2cccnc2)c(Cl)c1 (configuration not stated)	4.60	–
FC(F)(F)c1cc(C2CCCN(Cc3c[nH]c4ccccc34)C2)nc2ncnn12 (configuration not stated)	4.70	–
